In this assay the test system is DU-145 cells. Format: cell-based, human.

Take `C=C1[C@@H](C)[C@H]2[C@H](Cc3ccccc3)NC(=O)[C@]23[C@H](OC(C)=O)/C=C/[C@@](C)(O)C(=O)[C@@H](C)C/C=C/[C@H]3[C@@H]1O` [Cytochalasin-D]: the “Effect on cell migration (in words)” value is given as “did not migrate”; the “Relative Wound Density at 24 Hours, Mean” value was 3.3 ± 0.2; the “Relative Wound Density at 24 Hours, Percent Relative to Media” value is 4%.

These data come from patent publication US20110070186A1 (priority 2009, published 2011).
